In the supplement of paper PMC11451515:

Columns and labels:
Test in all cases: AUC of viability dose-response curve (% viability x log10 dose units); higher = less sensitive
Settings in all cases: 48 h
P12-Ichikawa = tested on: P12-Ichikawa
Outline: (§1)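 Leukemia cells adapted to each medium were seeded in 1536-well plates (500 or 1000 cells/well) and given library compounds in DMSO for 48 h at 37°C. The 11 threefold doses spanned 47 μM to 0.79 nM, and CellTiter-Glo One luminescence was normalised per plate to DMSO and cell-free wells before four-parameter log-logistic fitting on log10 dose. Area under the curve was integrated with the trapezoidal rule, scaling curves above full viability and removing curves that failed quality control.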

NOMO1 = tested on: NOMO1
Outline: as §1

SEM cells = tested on: SEM cells
Outline: as §1

[1] = RPMI 5 mM glucose + 10% dialyzed FBS

Row | Compound | AUC of viability dose-response curve (P12-Ichikawa; HPLM + 10% dialyzed FBS) | AUC of viability dose-response curve (P12-Ichikawa; RPMI 5 mM glucose + 10% FBS) | AUC of viability dose-response curve (P12-Ichikawa; [1]) | AUC of viability dose-response curve (NOMO1; HPLM + 10% dialyzed FBS) | AUC of viability dose-response curve (NOMO1; RPMI 5 mM glucose + 10% FBS) | AUC of viability dose-response curve (NOMO1; [1]) | AUC of viability dose-response curve (SEM cells; HPLM + 10% dialyzed FBS) | AUC of viability dose-response curve (SEM cells; RPMI 5 mM glucose + 10% FBS) | AUC of viability dose-response curve (SEM cells; [1])
1 | c1ccc2[nH]c(-c3cscn3)nc2c1 | 446 | 470 | 461 | 452 | 474 | 474 | 439 | 419 | 445
2 | CC(C)OC(=O)C(C(=O)OC(C)C)=C1S\C=C/S1 | 443 | 433 | 424 | 425 | 435 | 437 | 458 | 446 | 438
3 | CC[C@H](/C=C/[C@@H](C)[C@H]1CC[C@H]2[C@@H]3CC=C4C[C@@H](O)CC[C@]4(C)[C@H]3CC[C@]12C)C(C)C | 456 | 449 | 429 | 427 | 434 | 421 | 438 | 458 | 463
4 | O=C(C=CC#Cc1cccc(N[S+](=O)([O-])c2ccccc2)c1)NO | 353 | 345 | 346 | 367 | 374 | 371 | 354 | 358 | 352
5 | CC(C)N[C@@H]1CCn2c(=O)[nH]c3cccc(c32)[C@H]1O | 459 | 437 | 457 | 426 | 460 | 424 | 463 | 465 | 473
6 | CCOC(=O)[C@@H](N)Cc1ccc(-c2cc(O[C@H](c3ccc(Cl)cc3-n3ccc(C)n3)C(F)(F)F)nc(N)n2)cc1.O=C(O)CNC(=O)c1ccccc1 | 466 | 453 | 460 | 449 | 448 | 447 | 462 | 457 | 458
7 | CC1=C(C)C(=O)C(C(CCCCCC(=O)O)c2ccccc2)=C(C)C1=O (configuration not stated) | 387 | 414 | 362 | 334 | 293 | 318 | 301 | 301 | 303
8 | CN[C@@H](C)[C@H]1[C@H](O)C[C@@]2(C)[C@@H]3CC[C@H]4C(C)(C)[C@@H](NC)CC[C@@]45C[C@@]35CC[C@]12C | 464 | 450 | 425 | 445 | 454 | 445 | 376 | 392 | 399
9 | CC(C)(C)NC(=O)Nc1cccc(Nc2ncc(F)c(NC(C)(C)CO)n2)c1 | 415 | 425 | 429 | 477 | 450 | 459 | 415 | 396 | 397
10 | O=C(O)C1(Cc2cccc(Nc3nccs3)n2)CCC(Oc2cccc(Cl)c2F)CC1 (configuration not stated) | 356 | 373 | 381 | 381 | 382 | 386 | 370 | 369 | 368
11 | O=c1[nH]c(=O)n([C@H]2C[C@H](O)[C@@H](CO)O2)cc1/C=C/Br | 357 | 472 | 477 | 425 | 456 | 454 | 436 | 460 | 469
12 | CC1(C)O[C@@H]2C[C@H]3[C@@H]4C[C@H](F)C5=CC(=O)C=C[C@]5(C)[C@@]4(F)[C@@H](O)C[C@]3(C)[C@]2(C(=O)CO)O1 | 324 | 303 | 272 | 460 | 460 | 457 | 305 | 314 | 291
13 | Cc1c(C)n(Cc2ccc(-c3ccccc3C(=O)O)cc2)c2ccc(C(=O)N[C@@H](C)c3ccc([N+](=O)[O-])cc3)cc12 | 425 | 423 | 422 | 421 | 411 | 417 | 460 | 466 | 470
14 | C[N]1C=C(C=N1)C2=C3\C=N/NC(=O)C4=C3C(=CC(=C4)NC(=O)[C@H](N)C5CCCCC5)[NH]2 | 395 | 387 | 371 | 403 | 390 | 384 | 309 | 334 | 283
15 | OC[C@@H](O)[C@@H](O)[C@H](O)[C@@H](O)CO | 452 | 453 | 449 | 465 | 472 | 445 | 401 | 472 | 452
16 | CCCCC(=O)O[C@]1(C(=O)CO)[C@H](C)C[C@H]2[C@@H]3CCC4=CC(=O)C=C[C@]4(C)[C@@]3(F)[C@@H](O)C[C@@]21C | 372 | 315 | 292 | 467 | 474 | 472 | 378 | 362 | 350
17 | COc1cc(F)c(F)c(Nc2ccc(I)cc2F)c1N[S+](=O)([O-])C1(C[C@H](O)CO)CC1 | 450 | 461 | 456 | 449 | 455 | 457 | 465 | 443 | 461

Row | Compound | AUC of viability dose-response curve (P12-Ichikawa; HPLM + 10% dialyzed FBS) | AUC of viability dose-response curve (P12-Ichikawa; RPMI 5 mM glucose + 10% FBS) | AUC of viability dose-response curve (P12-Ichikawa; [1]) | AUC of viability dose-response curve (NOMO1; HPLM + 10% dialyzed FBS) | AUC of viability dose-response curve (NOMO1; RPMI 5 mM glucose + 10% FBS) | AUC of viability dose-response curve (NOMO1; [1]) | AUC of viability dose-response curve (SEM cells; HPLM + 10% dialyzed FBS) | AUC of viability dose-response curve (SEM cells; RPMI 5 mM glucose + 10% FBS) | AUC of viability dose-response curve (SEM cells; [1])
18 | C[C@]12CCC(=O)C=C1CC[C@@H]1[C@@H]2[C@@H](O)C[C@@]2(C)[C@H]1CC[C@]2(O)C(=O)CO | 447 | 425 | 412 | 474 | 456 | 458 | 466 | 427 | 443
19 | COC\1=C(/OC)C(=O)\C(=C(C)/C1=O)CCCCCCCCCCO | 471 | 456 | 459 | 461 | 464 | 468 | 460 | 471 | 456
20 | CN[C@H]1CCC2=CC(=C(OC)C(=C2C/3=C/C=C(OC)\C(=O)/C=C13)OC)OC | 151 | 147 | 158 | 205 | 174 | 206 | 159 | 144 | 148
21 | Nc1ncnc2c1ncn2[C@@H]1O[C@@H](CO)[C@H](O)[C@@H]1O | 464 | 477 | 472 | 454 | 467 | 441 | 467 | 466 | 449
22 | C[C@](Cc1c[nH]c2ccccc12)(NC(=O)OC1C2CC3CC(C2)CC1C3)C(=O)NC[C@H](NC(=O)CCC(=O)O)c1ccccc1 (some centres not stated) | 469 | 461 | 456 | 455 | 413 | 435 | 447 | 433 | 430
23 | CC1CNc2c(cccc2[S+](=O)([O-])N[C@@H](CCCNC(=N)N)C(=O)N2CC[C@@H](C)C[C@@H]2C(=O)O)C1 (some centres not stated) | 468 | 473 | 472 | 435 | 465 | 465 | 453 | 450 | 462
24 | CCN1CCN(c2ccc(Nc3cc(N(C)C(=O)Nc4c(Cl)c(OC)cc(OC)c4Cl)ncn3)cc2)CC1 | 429 | 428 | 423 | 372 | 395 | 399 | 347 | 316 | 351
25 | Cc1onc(-c2ccccc2Cl)c1C(=O)N[C@@H]1C(=O)N2[C@@H]1SC(C)(C)[C@@H]2C(=O)[O-] | 469 | 451 | 456 | 455 | 437 | 424 | 402 | 435 | 464
26 | C[S+](=O)([O-])Nc1ccc([N+](=O)[O-])cc1Oc1ccccc1 | 461 | 456 | 460 | 452 | 465 | 464 | 467 | 449 | 464
27 | C[C@H]1C[C@@H]2[C@H](CC[C@@]3(C)[C@H]2CC[C@]3(OC(C)=O)C(C)=O)[C@@]\4(C)CCC(=O)\C=C14 | 464 | 446 | 442 | 471 | 472 | 458 | 417 | 433 | 425
28 | CC(C)(C)OC(=O)N[C@H]1CCCCC/C=C\[C@@H]2C[C@@]2(C(=O)N[S+](=O)([O-])C2CC2)NC(=O)[C@@H]2C[C@@H](OC(=O)N3Cc4cccc(F)c4C3)CN2C1=O | 468 | 467 | 459 | 457 | 468 | 472 | 401 | 441 | 466
29 | CNCC(O)c1ccc(O)cc1 (configuration not stated) | 464 | 466 | 469 | 446 | 455 | 441 | 423 | 452 | 459
30 | CN1CCN(C2=Nc3cc(Cl)ccc3Nc3ccccc32)CC1 | 477 | 472 | 471 | 463 | 471 | 470 | 459 | 428 | 452
31 | CC(C)CNc1ccnc(NCc2csc(-c3ccccc3)n2)n1 | 440 | 436 | 442 | 414 | 456 | 446 | 447 | 447 | 458
32 | O=C(O)Cn1nnc(-c2cc(N3CCC(Oc4cc(F)ccc4Br)CC3)no2)n1 | 413 | 415 | 428 | 357 | 340 | 361 | 422 | 464 | 459
33 | O=C1c2ccccc2-[n+]2ccc3c([nH]c4ccccc43)c21 | 403 | 405 | 407 | 385 | 398 | 390 | 291 | 332 | 311
